Data taken from patent US10703756B2, “Pyrrolo[2,3-D]pyrimidinyl, pyrrolo[2,3-B]pyrazinyl, pyrrolo[2,3-B]pyridinyl acrylamides and epoxides thereof” (Pfizer Inc., priority 2015, dated 2020).
Read-outs that look alike come from different tables or passages of the source.

Tests used:
[1] = Stability of JAK3 Covalent Inhibitors in Human Whole Blood; format: in vitro ADME; details: both sexes, 1 μM test compound, 37° C., 180 min incubation, read-out: Human blood stability t1/2
Experimental: Stability of JAK3 Covalent Inhibitors in Rat and Human Whole Blood
Rat blood was collected from 3 male Sprague-Dawley rats (200-250 g, Charles River Laboratories) and pooled for each study. Human blood was collected from healthy subjects at the Occupational Health & Wellness Center at Pfizer, Groton, Conn. and pooled for each study. Both rat and human blood was collected freshly into K2-EDTA tubes and kept on ice. An aliquot of the blood was transferred to microtubes and pre-warmed for 10 min at 37° C. using a heat block. The test compound was then added (1 μM final concentration) and the incubation was continued for 180 min at 37° C. in duplicates. An aliquot of the incubation mixture was removed at designated time points during the course of the incubation, mixed with an aliquot of acetonitrile containing an internal standard, vortexed and centrifuged. The resulting supernatants were removed and subjected to LC-MS/MS analyses to determine parent compound concentrations. Peak area ratios of the parent compound vs the internal standard were used to determine the % of parent compound remaining vs incubation time.

JAK3 enzyme [2] = molecular target: T1, JAK3 enzyme (Homo sapiens, UniProt P52333); test: JAK Caliper Enzyme Assay at 4 μM ATP; format: biochemical
T1 sequence (P52333 1-1124): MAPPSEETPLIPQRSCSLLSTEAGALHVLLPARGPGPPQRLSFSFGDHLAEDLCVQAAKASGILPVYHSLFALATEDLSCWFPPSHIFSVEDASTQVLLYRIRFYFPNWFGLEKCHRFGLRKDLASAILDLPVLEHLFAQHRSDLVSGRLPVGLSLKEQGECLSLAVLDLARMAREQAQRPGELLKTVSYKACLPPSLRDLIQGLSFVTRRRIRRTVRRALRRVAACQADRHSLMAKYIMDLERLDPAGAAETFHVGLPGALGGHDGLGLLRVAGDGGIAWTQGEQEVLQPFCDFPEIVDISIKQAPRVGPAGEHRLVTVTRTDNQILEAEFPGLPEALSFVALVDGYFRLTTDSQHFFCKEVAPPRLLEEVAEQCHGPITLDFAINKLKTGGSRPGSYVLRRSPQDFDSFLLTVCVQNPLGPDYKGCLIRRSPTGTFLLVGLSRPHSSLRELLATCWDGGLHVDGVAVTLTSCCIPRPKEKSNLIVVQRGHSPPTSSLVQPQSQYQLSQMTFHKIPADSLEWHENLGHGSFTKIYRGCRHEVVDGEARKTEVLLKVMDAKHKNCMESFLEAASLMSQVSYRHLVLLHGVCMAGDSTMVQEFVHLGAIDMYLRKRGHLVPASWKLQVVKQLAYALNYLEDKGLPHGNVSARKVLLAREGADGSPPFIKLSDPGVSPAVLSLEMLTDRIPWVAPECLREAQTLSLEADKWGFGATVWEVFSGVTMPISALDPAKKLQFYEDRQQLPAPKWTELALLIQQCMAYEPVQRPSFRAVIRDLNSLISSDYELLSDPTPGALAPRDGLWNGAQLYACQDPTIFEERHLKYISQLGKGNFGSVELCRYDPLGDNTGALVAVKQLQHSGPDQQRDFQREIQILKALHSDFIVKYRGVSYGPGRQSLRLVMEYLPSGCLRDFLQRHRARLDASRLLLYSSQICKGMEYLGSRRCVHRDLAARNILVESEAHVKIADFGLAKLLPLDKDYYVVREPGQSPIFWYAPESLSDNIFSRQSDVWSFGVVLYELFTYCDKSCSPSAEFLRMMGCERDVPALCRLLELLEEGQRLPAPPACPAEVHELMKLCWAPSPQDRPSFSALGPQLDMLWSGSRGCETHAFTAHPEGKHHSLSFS
Method in brief: (§1)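 Kinase activity is measured by separating phosphorylated from unphosphorylated peptide on a microfluidic chip. Per enzyme batch, protein concentration and incubation time are optimized to give 20%-30% substrate turnover.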

JAK3 enzyme [3] = molecular target: T1, JAK3 enzyme; test: JAK Caliper Enzyme Assay at 1 mM ATP; format: biochemical
Method in brief: as §1

[4] = tested on: IL-15 induced P-STAT5 in human PBMC; test: PBMC IL-15 Induced P-STAT5; format: cell-based
Method in brief: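 Flow cytometry gated on total lymphocytes measured STAT5 staining (Alexa Fluor 647 antibody, overnight, 4 °C) in fixed, methanol-permeabilised human PBMC. Cells had received compound for 15 min at 37 °C (0.2% DMSO final), followed by 41 ng/mL final human IL-15 for 15 min.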

[5] = human PBMC, IL-15 final 41 ng/mL, read-out: PBMC IL15_pSTAT5_IC50

Row | half-life at 1 μM [1] [h] | IC50 (JAK3 enzyme [2]) [nM] | IC50 (JAK3 enzyme [3]) [nM] | Compound | IC50 ([4]; Homo sapiens, PBMC, read-out: PBMC IL15_pSTAT5_IC50 (nM)) [nM] | IC50 [4, 5] [nM]
1 | > 6 | 32.1 | 4370 | C=CC(=O)N1CC[C@H](Nc2cnc3c(n2)c(C(=O)NCC)cn3C)C[C@@H]1C (single isomer, unassigned) [Example 350] | – | –
2 | 3.27 | 27.1 | 2100 | C=CC(=O)N1CCC[C@@H](Oc2cnc3[nH]cc(C(=O)N[C@@H](C)COC)c3n2)C1 [Example 49, 2-{[(3R)-1-acryloylpiperidin-3-yl]oxy}-N-[(2S)-1-methoxypropan-2-yl]-5H-pyrrolo[2,3-b]pyrazine-7-carboxamide] | – | –
3 | > 6 | 6.67 | 787 | C=CC(=O)N1CCC(Oc2cnc3[nH]cc(-c4nnco4)c3n2)CC1 [Example 128, 1-(4-{[7-(1,3,4-Oxadiazol-2-yl)-5H-pyrrolo[2,3-b]pyrazin-2-yl]oxy}piperidin-1-yl)propan-2-en-1-one] | – | –
4 | 2.67 | 6.96 | 921 | C=CC(=O)N1CCC(Oc2cnc3[nH]cc(-c4ncnn4CC)c3n2)CC1 [Example 121, 1-(4-((7-(1-ethyl-1H-1,2,4-triazol-5-yl)-5H-pyrrolo[2,3-b]pyrazin-2-yl)oxy)piperidin-1-yl)prop-2-en-1-one] | – | –
5 | 3.77 | 8.31 | 929 | C=CC(=O)N1CCC(Oc2cnc3[nH]cc(-c4n[nH]c(C)n4)c3n2)CC1 [Example 115, 1-(4-{[7-(5-Methyl-1H-1,2,4-triazol-3-yl)-5H-pyrrolo[2,3-b]pyrazin-2-yl]oxy}piperidin-1-yl)prop-2-en-1-one] | – | –
6 | 5.13 | 0.508 | 4 | C=CC(=O)N1CCC(Nc2cnc3[nH]cc(C(=O)NCCC)c3n2)CC1 [Example 170, 2-[(1-acryloylpiperidin-4-yl)amino]-N-propyl-5H-pyrrolo[2,3-b]pyrazine-7-carboxamide] | – | –
7 | > 6 | – | 76.9 | C=CC(=O)N1C[C@H](Oc2cnc3[nH]cc(C(=O)N[C@@H](C)COC)c3n2)CC[C@@H]1C (single isomer, unassigned) [Example 81] | – | –
8 | > 6 | 9.1 | 1390 | C=CC(=O)N1C[C@@H](Nc2cnc3[nH]cc(C(=O)N[C@H](C)COC)c3n2)CC[C@H]1C (single isomer, unassigned) [Example 70] | – | –
9 | 1.38 | 2.91 | 467 | C=CC(=O)N(C)C1CN(c2cnc3[nH]cc(C(=O)N[C@@H](C)COC)c3n2)C1 [Example 85, 2-{3-[acryloyl(methyl)amino]azetidin-1-yl}-N-[(2S)-1-methoxypropan-2-yl]-5H-pyrrolo[2,3-b]pyrazine-7-carboxamide] | – | –
10 | 5.52 | 2.88 | 838 | C=CC(=O)N1CC[C@@H](Nc2cnc3c(n2)c(C(=O)NCC)cn3C)C[C@H]1C (single isomer, unassigned) [Example 351] | – | –
11 | > 6 | 4.48 | 725 | C=CC(=O)N1CCC(Oc2cnc3[nH]cc(-c4nnc[nH]4)c3n2)CC1 [Example 120, 1-(4-{[7-(4H-1,2,4-Triazol-3-yl)-5H-pyrrolo[2,3-b]pyrazin-2-yl]oxy}piperidin-1-yl)prop-2-en-1-one] | – | –
12 | 3.46 | 1.61 | 308 | C=CC(=O)N1CC[C@H](COc2cnc3[nH]cc(C(=O)N[C@@H](C)COC)c3n2)C1 (single isomer, unassigned) [Example 11] | – | –
13 | – | 6.26 | 1200 | C=CC(=O)N(C)C1CN(c2cnc3[nH]cc(C(=O)NCC)c3n2)C1 [Example 59, 2-{3-[acryloyl(methyl)amino]azetidin-1-yl}-N-ethyl-5H-pyrrolo[2,3-b]pyrazine-7-carboxamide] | – | 4870
14 | – | 1.43 | 330 | C=CC(=O)N1CC[C@@H](Nc2cnc3[nH]cc(C(=O)NCC4(O)CCC(F)(F)CC4)c3n2)[C@@H](OC)C1 [Example 268] | – | > 10000
15 | – | 0.435 | 54 | C=CC(=O)N1CCC(Oc2cnc3[nH]cc(C(=O)N[C@H]4CC[C@H](F)C4)c3n2)CC1 [Example 210, 2-[(1-acryloylpiperidin-4-yl)oxy]-N-[(1S,3S)-3-fluorocyclopentyl]-5H-pyrrolo[2,3-b]pyrazine-7-carboxamide] | – | 325
16 | – | 0.479 | 111 | C=CC(=O)N1CCN(c2cnc3[nH]cc(C(=O)NCC4CC(F)(F)C4)c3n2)CC1 [Example 276, 2-(4-acryloylpiperazin-1-yl)-N-[(3,3-difluorocyclobutyl)methyl]-5H-pyrrolo[2,3-b]pyrazine-7-carboxamide] | – | 623
17 | – | 1.77 | 297 | C=CC(=O)N1C[C@H](Nc2cnc3[nH]cc(C(=O)NCCOC)c3n2)[C@](C)(C#N)C1 [Example 245, 2-{[(3R,4R)-1-acryloyl-4-cyano-4-methylpyrrolidin-3-yl]amino}-N-(2-methoxyethyl)-5H-pyrrolo[2,3-b]pyrazine-7-carboxamide] | – | > 10000
18 | – | 34.2 | 3930 | C=CC(=O)N1CCC(Oc2cnc3[nH]cc([C@@H](C)O)c3n2)CC1 (single isomer, unassigned) [Example 119] | – | 9310
19 | – | 0.269 | 47 | C=CC(=O)N1CC[C@H](Nc2cnc3[nH]cc(C(=O)NCC4CC(F)(F)C4)c3n2)[C@H](OC)C1 [Example 322, 2-{[(3R,4S)-1-acryloyl-3-methoxypiperidin-4-yl]amino}-N-[(3,3-difluorocyclobutyl)methyl]-5H-pyrrolo[2,3-b]pyrazine-7-carboxamide] | – | 428
20 | – | 2.89 | 385 | C=CC(=O)N1CCN(c2cnc3[nH]cc(C(=O)NCC4(O)CCC(F)(F)CC4)c3n2)C[C@@H]1CC(C)C [Example 302, 2-[(3S)-4-acryloyl-3-(2-methylpropyl)piperazin-1-yl]-N-[(4,4-difluoro-1-hydroxycyclohexyl)methyl]-5H-pyrrolo[2,3-b]pyrazine-7-carboxamide] | – | 1190
21 | – | 1.71 | 187 | C=CC(=O)N1C[C@@H](CO)C[C@@H](Nc2ncnc3[nH]ccc23)C1 (racemic) [Example 97, racemic-1-((3R,5S)-3-((7H-pyrrolo[2,3-d]pyrimidin-4-yl)amino)-5-(hydroxymethyl)piperidin-1-yl)prop-2-en-1-one] | – | 1060
22 | > 6 | 6.21 | 412 | C=CC(=O)N1C[C@H](Nc2cnc3[nH]cc(C(=O)N[C@@H](C)COC)c3n2)CC[C@@H]1C (single isomer, unassigned) [Example 66] | – | –

Row | Compound | half-life at 1 μM [1] [h] | IC50 (JAK3 enzyme [2]) [nM] | IC50 (JAK3 enzyme [3]) [nM] | IC50 ([4]; Homo sapiens, PBMC, read-out: PBMC IL15_pSTAT5_IC50 (nM)) [nM] | IC50 [4, 5] [nM]
23 | C=CC(=O)N1CC[C@@H](Nc2cnc3[nH]cc(C(=O)N[C@H](C)COC)c3n2)C[C@H]1C (single isomer, unassigned) [Example 58] | > 6 | 2.77 | 282 | 4740 | –
